Columns and labels:
[1] = test system: spinal MOR+ neurons; test: Von Frey filament Up-Down test with chemogenetic inhibition; assay type: in vivo, mouse; details: intrathecal DCZ 10 pg, mMORp-hM4Di-mCherry injected mice; von Frey and hot plate
Procedure: For spinal cord chemogenetic studies, mice were injected intraparenchymally at four sites (bilaterally at L4 and L5) with 400 nL of AAV1-mMORp-hM4Di-mCherry (titer: 3.1×10^12 gc/mL) to drive transduction of inhibitory DREADD receptor in spinal cord neurons. Using a modified, minimally invasive method for microinjection in the mouse spinal dorsal horn without laminectomy^91, mice were first anesthetized with isoflurane gas in oxygen (initial dose=4%, maintenance dose=2%), the back shaved and wiped with alcohol and povidone-iodine followed by a 2 cm incision made through the skin, and then placed within a modified Kopf stereotaxic frame to stabilize the T13 and L3 spinal column vertebrae. Next, the spinal column was slightly arched upwards by ˜30°, 0.2 mg/kg lidocaine was administered to the overlying muscle, which was then was gently dissected to expose the interspace above and below the T13 vertebrae, allowing direct access to the L3-5 spinal cord dorsal surface. […]
Von Frey filament touch test: To evaluate mechanical reflexive sensitivity, we used a logarithmically increasing set of 8 von Frey filaments (Stoelting), ranging in gram force from 0.07 to 6.0 grams. […] Using the Up-Down statistical method^100, the 50% withdrawal mechanical threshold scores were calculated for each mouse and then averaged across the experimental groups. […]

[2] = test system: MOR+ CeA neurons; test: In vivo fiber photometry, hot water hind paw stimulation; design: species or system mouse; details: mMORp-GCaMP6f mice, morphine i.p. 10 mg/kg 30 minutes prior to hot water hind paw stimulations
Procedure: For fiber photometry studies, mice were injected with ˜300 nL of recombinant AAV1-mMORp-GCaMP6f (titer: 3.69×10^12 gc/mL) in the right CeA, followed immediately by the placement of a fiberoptic implant (˜4.7 mm fiber, Doric Lenses) approximately 0.1-0.2 mm above the DV coordinate of the injection site (same as listed above). After setting the fiberoptic in position, MetaBond (Parkel1) and Jet Set dental acrylic (Lang Dental) were applied to the skull of a mouse to rapidly and firmly fix the fiberoptic in place. In brief, after exposure of the skull, the bone was scored with a scalpel blade to provide grooves for the MetaBond to settle into and provide better adhesion. After lowering the fiberoptic into the craniotomy hole, the skull was cleaned with saline and then fully air dried. […] All mice were monitored for up to two days following surgical procedures to ensure the animals' proper recovery.
Hot water hindpaw stimulation test: To evaluate responses to acute, noxious thermal stimulations during fiber photometry testing, we used a hot water hind paw application protocol described previously^102. […] Animals were continuously recorded by a web camera positioned to face the front of the cylinder in which the animal was housed, and all relevant behaviors time-locked to calcium mediated events were scored post-hoc using the video footage. […]

[3] = test system: MOR+ CeA neurons; test: In vivo fiber photometry, chronic morphine drinking and naloxone precipitated withdrawal; design: species or system mouse; details: mMORp-GCaMP6f mice, forced morphine drinking (0.3 mg/ml 3 days, 0.5 mg/ml 4 days), naloxone i.p. 3 mg/kg, 20-minute window
Procedure: For fiber photometry studies, mice were injected with ˜300 nL of recombinant AAV1-mMORp-GCaMP6f (titer: 3.69×10^12 gc/mL) in the right CeA, followed immediately by the placement of a fiberoptic implant (˜4.7 mm fiber, Doric Lenses) approximately 0.1-0.2 mm above the DV coordinate of the injection site (same as listed above). After setting the fiberoptic in position, MetaBond (Parkel1) and Jet Set dental acrylic (Lang Dental) were applied to the skull of a mouse to rapidly and firmly fix the fiberoptic in place. In brief, after exposure of the skull, the bone was scored with a scalpel blade to provide grooves for the MetaBond to settle into and provide better adhesion. […] All mice were monitored for up to two days following surgical procedures to ensure the animals' proper recovery.
In Vivo Fiber Photometry Recordings and Analysis: Optical recordings of GCaMP6f fluorescence were acquired using an RZ10× fiber photometry detection system (Tucker-Davis Technologies), consisting of a processor with Synapse software (Tucker-Davis Technologies), and optical components (Doric Lenses and ThorLabs). Excitation wavelengths generated by LEDs (460 nm blue light and 405 nm violet light) were relayed through a filtered fluorescence minicube at spectral bandwidths of 460-495 and 405 nm to a pre-bleached mono fiberoptic patch cord connected to the implant on top of each animal's head. […]

SMILES	analgesic effects on activation of mMORp-hM4Di in spinal cord neurons [1]	calcium mediated event peak z-score [2]	average post naloxone calcium events [3]
CN1CCN(C2=Nc3ccccc3Nc3ccccc32)CC1 [DCZ, deschloroclozapine]	analgesic effects similar to CNO treatment	–	–
CN1CC[C@]23c4c5ccc(O)c4O[C@H]2[C@@H](O)C=C[C@H]3[C@H]1C5.O=S(=O)(O)O [morphine, morphine sulfate]	–	7.6	91

From patent US20260174790A1, “HUMAN AND MURINE OPRM1 PROMOTERS AND USES THEREOF” (The Trustees of the University of Pennsylvania, priority 2022, published 2026)
